Experimental data published in patent US11827639B2, “TDO2 and IDO1 inhibitors” (Genentech, Inc., priority 2017, dated 2023).

What was measured:
IDO1 = IDO1 (Homo sapiens, UniProt P14902); test: cell-based
Method: (§1) The NFK GreenScreen™ (NTRC, Netherlands) uses a specific chemical probe that binds to N-Formylkynurenine (NFK), a product of tryptophan catabolism facilitated by IDO or TDO and causes fluorescence at 510 nm when excited at 410 nm. […] The assay is multiplexed with Cell Titer-Glo® (Promega) to determine if compounds are cytotoxic. […] Cells are counted on a Vi-Cell (Beckman Coulter). SW48 cells are diluted to 1×10^6 cells/ml in assay media. A172 cells are diluted to 0.24×10^6 cells/ml in assay media. […] 5 ul of assay media containing 1.2 mM tryptophan are added to the SW48 cells for a final concentration of 200 uM tryptophan in each well. 5 ul of assay media containing 600 uM tryptophan and 600 ng/ml IFNγ are added to the A172 cells for a final concentration of 100 uM tryptophan and 100 ng/ml IFNγ in each well. The final DMSO concentration is 0.5%. Cell plates are placed at room temperature in a closed TC hood with the blower off to allow cells to settle for approximately 30 min. Plates are then moved to an incubator set at 37° C., 5% CO2 for 24 hours. After the 24 hour compound incubation, 8 ul of NFK green reagent is added to each well with a Multidrop™ Combi dispenser (Thermo Scientific). Plates are sealed and incubated at 37° C., 5% CO2 for 5 hours, then read on a PHERAstar® (BMG labtech). Data are analyzed by normalizing to DMSO and high inhibitor controls. After the plates have been read for NFK green, 25 ul of Cell Titer-Glo® (Promega) are added to each well, incubated for 15 minutes at room temperature, and read on the Envision (Perkin Elmer). Cell Titer-Glo data are analyzed by normalizing to the DMSO controls. Four-parameter curve fitting is used and EC50 data are reported.

TDO2 = TDO2 (Homo sapiens, UniProt P48775); test: cell-based
Sequence of TDO2 (P48775 whole entry): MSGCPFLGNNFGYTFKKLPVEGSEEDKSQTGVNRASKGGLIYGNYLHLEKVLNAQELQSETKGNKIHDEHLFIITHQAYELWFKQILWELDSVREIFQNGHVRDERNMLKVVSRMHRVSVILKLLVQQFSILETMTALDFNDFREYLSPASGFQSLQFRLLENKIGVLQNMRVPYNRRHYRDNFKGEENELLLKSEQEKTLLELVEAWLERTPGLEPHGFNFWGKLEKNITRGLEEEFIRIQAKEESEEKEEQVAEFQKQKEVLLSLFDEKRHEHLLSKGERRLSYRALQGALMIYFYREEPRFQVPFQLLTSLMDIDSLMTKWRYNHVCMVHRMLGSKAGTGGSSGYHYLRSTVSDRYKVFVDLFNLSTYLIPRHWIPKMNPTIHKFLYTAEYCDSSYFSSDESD
Method: as §1

Sequence of IDO1 (P14902 whole entry): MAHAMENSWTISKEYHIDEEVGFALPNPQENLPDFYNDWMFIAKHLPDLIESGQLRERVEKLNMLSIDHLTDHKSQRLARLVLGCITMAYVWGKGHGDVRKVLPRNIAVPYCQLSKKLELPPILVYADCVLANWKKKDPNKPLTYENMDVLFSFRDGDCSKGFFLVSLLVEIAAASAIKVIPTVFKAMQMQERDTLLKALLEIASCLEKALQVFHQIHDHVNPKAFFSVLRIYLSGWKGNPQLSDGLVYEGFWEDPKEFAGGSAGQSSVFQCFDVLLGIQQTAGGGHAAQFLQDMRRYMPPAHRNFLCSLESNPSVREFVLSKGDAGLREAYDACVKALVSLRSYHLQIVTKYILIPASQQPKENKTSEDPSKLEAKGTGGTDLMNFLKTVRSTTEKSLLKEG

Compound	EC50 (IDO1)	EC50 (TDO2)
CS(=O)(=O)N1CCC2(CC1)CC(C1c3ccccc3-c3cncn31)C2 (stereo not shown) [Example 59, 5-(7-(methylsulfonyl)-7-azaspiro[3.5]nonan-2-yl)-5H-imidazo[5,1-a]isoindole]	1.5 µM	0.24 µM
Cn1cc(C2c3ccccc3-c3cncn32)cn1 (single isomer, unassigned) [Example 79a]		10 µM
CS(=O)(=O)N1CC2(CCC(C3c4ccccc4-c4cncn43)CC2)C1 (single isomer, unassigned) [Example 78a]	18 µM	10 µM
c1ccc2c(c1)-c1cncn1[C@@H]2C1CCCCC1 [Example 19a]	10 µM	17 µM
CCS(=O)(=O)N1CC(C2c3ccccc3-c3cncn32)C1 (stereo not shown) [Example 25, 5-(1-(ethylsulfonyl)azetidin-3-yl)-5H-imidazo[5,1-a]isoindole]		14 µM
C[C@H](O)c1cccc([C@H]2c3ccccc3-c3cncn32)c1 [Example 10a, (S)-1-(3-((S)-5H-imidazo[5,1-a]isoindol-5-yl)phenyl)ethan-1-ol]	5 µM	0.32 µM
NC(=O)c1cccc(C2c3ccccc3-c3cncn32)c1 (stereo not shown) [Example 11, 3-(5H-imidazo[5,1-a]isoindol-5-yl)benzamide]		0.65 µM
CC(O)c1cccc(C2c3ccccc3-c3cncn32)c1 (single isomer, unassigned) [Example 10b]		5.7 µM
NS(=O)(=O)N1CCCC(C2c3ccccc3-c3cncn32)C1 (stereo not shown) [Example 64, 3-(5H-imidazo[5,1-a]isoindol-5-yl)piperidine-1-sulfonamide]	4.4 µM	0.41 µM
N#Cc1cccc(C2c3ccccc3-c3cncn32)c1 (stereo not shown) [Example 17, 3-(5H-imidazo[5,1-a]isoindol-5-yl)benzonitrile]	16 µM	2 µM
OCc1cc(F)cc(C2c3ccccc3-c3cncn32)c1 (single isomer, unassigned) [Example 09a]	21 µM	0.69 µM
OCc1cccc([C@@H]2c3ccccc3-c3cncn32)c1 [Example 01a, (R)-(3-(5H-imidazo[5,1-a]isoindol-5-yl)phenyl)methanol]		11 µM
c1ccc2c(c1)-c1cncn1C2C1CCn2nccc2C1 (single isomer, unassigned) [Example 05b]		1.7 µM
c1cncc(C2c3ccccc3-c3cncn32)c1 (stereo not shown) [Example 37, 5-(pyridin-3-yl)-5H-imidazo[5,1-a]isoindole]		4.1 µM
CS(=O)(=O)N1CCC(C2c3ccccc3-c3cncn32)CC1 (stereo not shown) [Example 16, 5-(1-(methylsulfonyl)piperidin-4-yl)-5H-imidazo[5,1-a]isoindole]	0.93 µM	0.15 µM
NS(=O)(=O)N1CC2C(C1)C2C1c2ccccc2-c2cncn21 (stereo not shown) [Example 96, 6-(5H-imidazo[5,1-a]isoindol-5-yl)-3-azabicyclo[3.1.0]hexane-3-sulfonamide]	9 µM	0.39 µM
CNS(=O)(=O)c1cccc(C2c3ccccc3-c3cncn32)c1 (stereo not shown) [Example 12, 3-(5H-imidazo[5,1-a]isoindol-5-yl)-N-methylbenzenesulfonamide]	11 µM	1.8 µM
O=S(=O)(NC1CC1)N1CCC(C2c3ccc(F)cc3-c3cncn32)CC1 (stereo not shown) [Example 89, N-cyclopropyl-4-(8-fluoro-5H-imidazo[5,1-a]isoindol-5-yl)piperidine-1-sulfonamide]	5.9 µM	0.22 µM
Cn1cc(C2c3ccccc3-c3cncn32)cn1 (single isomer, unassigned) [Example 79b]	8.5 µM	0.53 µM
CC1(O)CCC(C2c3ccccc3-c3cncn32)CC1 (stereo not shown) [Example 70, 4-(5H-imidazo[5,1-a]isoindol-5-yl)-1-methylcyclohexan-1-ol]	0.86 µM	0.18 µM
Cn1ncc2cc(C3c4ccccc4-c4cncn43)ccc21 (stereo not shown) [Example 55b]	8.1 µM	0.78 µM
NC(=O)C1CCC(C2c3ccccc3-c3cncn32)CC1 (single isomer, unassigned) [Example 60c]	6.4 µM	
OCc1cccc([C@H]2c3ccccc3-c3cncn32)c1 [Example 01b, (S)-(3-(5H-imidazo[5,1-a]isoindol-5-yl)phenyl)methanol]	8.5 µM	0.31 µM
CCS(=O)(=O)Nc1cc2n(n1)CCC(C1c3ccccc3-c3cncn31)=C2 (stereo not shown) [Example 68, N-(5-(5H-imidazo[5,1-a]isoindol-5-yl)-6,7-dihydropyrazolo[1,5-a]pyridin-2-yl)ethanesulfonamide]		1.4 µM
CC(C)CC1c2ccccc2-c2cncn21 (stereo not shown) [Example 53, 5-isobutyl-5H-imidazo[5,1-a]isoindole]	4.4 µM	0.87 µM
CC(C)(C)OC(=O)N1CCC2(CC1)CC(C1c3ccccc3-c3cncn31)C2 (stereo not shown) [Example 57, tert-butyl 2-(5H-imidazo[5,1-a]isoindol-5-yl)-7-azaspiro[3.5]nonane-7-carboxylate]	0.91 µM	1.5 µM
c1ccc2c(c1)-c1cncn1C2C1CCn2nccc2C1 (single isomer, unassigned) [Example 05c]		24 µM

Compound	EC50 (IDO1)	EC50 (TDO2)
NC(=O)C1CCC(C2c3ccccc3-c3cncn32)CC1 (single isomer, unassigned) [Example 60d]	17 µM	10 µM
c1ccc2c(c1)-c1cncn1C2CCC1CCCCC1 (stereo not shown) [Example 22, 5-(2-cyclohexylethyl)-5H-imidazo[5,1-a]isoindole]		2.3 µM
O=S(=O)(N1CCC1)N1CCC(C2c3ccc(F)cc3-c3cncn32)CC1 (stereo not shown) [Example 88, 5-(1-(azetidin-1-ylsulfonyl)piperidin-4-yl)-8-fluoro-5H-imidazo[5,1-a]isoindole]	5.3 µM	0.9 µM
CS(=O)(=O)C1CCC(C2c3ccccc3-c3cncn32)CC1 (single isomer, unassigned) [Example 83b]	2.3 µM	0.77 µM
Cn1cc(C2c3ccccc3-c3cncn32)ccc1=O (single isomer, unassigned) [Example 84b]	12 µM	0.36 µM
NC(=O)C1CCC(C2c3ccccc3-c3cncn32)CC1 (single isomer, unassigned) [Example 60b]	1.5 µM	0.27 µM
CS(=O)(=O)N1CCCC(C2c3ccccc3-c3cncn32)C1 (stereo not shown) [Example 71, 5-(1-(methylsulfonyl)piperidin-3-yl)-5H-imidazo[5,1-a]isoindole]	14 µM	0.56 µM
c1ccc2c(c1)-c1cncn1C2C1CC2(COC2)C1 (stereo not shown) [Example 39, 5-(2-oxaspiro[3.3]heptan-6-yl)-5H-imidazo[5,1-a]isoindole]	11 µM	0.59 µM
CC(O)c1cccc(C2c3ccccc3-c3cncn32)c1 (single isomer, unassigned) [Example 10c]	22 µM	0.59 µM
Cc1cccc(C2c3ccccc3-c3cncn32)c1 (stereo not shown) [Example 21, 5-(m-tolyl)-5H-imidazo[5,1-a]isoindole]	9.7 µM	0.36 µM
CS(=O)(=O)N1CC2CC(C3c4ccccc4-c4cncn43)CC2C1 (stereo not shown) [Example 75a, 5-(2-(methylsulfonyl)octahydrocyclopenta[c]pyrrol-5-yl)-5H-imidazo[5,1-a]isoindole]	7.6 µM	2.1 µM
O=S1(=O)NCC2CC(C3c4ccccc4-c4cncn43)CCN21 (stereo not shown) [Example 94, 5-(5H-imidazo[5,1-a]isoindol-5-yl)hexahydro-2H-[1,2,5]thiadiazolo[2,3-a]pyridine 1,1-dioxide]	7.1 µM	0.42 µM
NC(=O)C1(CC2c3ccccc3-c3cncn32)CC1 (stereo not shown) [Example 54, 1-((5H-imidazo[5,1-a]isoindol-5-yl)methyl)cyclopropane-1-carboxamide]		5.4 µM
Fc1cc(C2c3ccccc3-c3cncn32)cc(F)c1F (stereo not shown) [Example 65, 5-(3,4,5-trifluorophenyl)-5H-imidazo[5,1-a]isoindole]	1.9 µM	0.21 µM
c1ccc2c(c1)-c1cncn1C2C1CCn2nccc2C1 (single isomer, unassigned) [Example 05a]		1.1 µM
Cn1cc(C2c3ccccc3-c3cncn32)ccc1=O (single isomer, unassigned) [Example 84a]		7.1 µM
OCc1ccc(F)c(C2c3ccccc3-c3cncn32)c1 (stereo not shown) [Example 08, (4-fluoro-3-(5H-imidazo[5,1-a]isoindol-5-yl)phenyl)methanol]		1.5 µM
c1ccc2c(c1)-c1cncn1C2c1cnn2c1CCC2 (stereo not shown) [Example 87, 5-(5,6-dihydro-4H-pyrrolo[1,2-b]pyrazol-3-yl)-5H-imidazo[5,1-a]isoindole]		2.7 µM
O=C(C1CC1)N1CCC(C2c3ccccc3-c3cncn32)CC1 (stereo not shown) [Example 18, (4-(5H-imidazo[5,1-a]isoindol-5-yl)piperidin-1-yl)(cyclopropyl)methanone]	19 µM	9.6 µM
OCc1cc(F)cc(C2c3ccccc3-c3cncn32)c1 (single isomer, unassigned) [Example 09b]	3.3 µM	0.096 µM
CC(O)c1cccc(C2c3ccccc3-c3cncn32)c1 (single isomer, unassigned) [Example 10d]		5 µM
OCc1cccc(C2c3ccccc3-c3cncn32)n1 (stereo not shown) [Example 03, (6-(5H-imidazo[5,1-a]isoindol-5-yl)pyridin-2-yl)methanol]		13 µM
c1ccc2c(c1)-c1cncn1C2c1ccncc1 (stereo not shown) [Example 41, 5-(pyridin-4-yl)-5H-imidazo[5,1-a]isoindole]		2.5 µM
N#CC1(CC2c3ccccc3-c3cncn32)CC1 (stereo not shown) [Example 48, 1-((5H-imidazo[5,1-a]isoindol-5-yl)methyl)cyclopropane-1-carbonitrile]		6.2 µM
CS(=O)(=O)C1CCC(C2c3ccccc3-c3cncn32)CC1 (single isomer, unassigned) [Example 83a]		22 µM
NS(=O)(=O)c1cccc(C2c3ccccc3-c3cncn32)c1 (single isomer, unassigned) [Example 07a]		7.2 µM
CS(=O)(=O)N1CC2(CC(C3c4ccccc4-c4cncn43)C2)C1 (single isomer, unassigned) [Example 72b]		17 µM
